Laboratory results published in patent publication US20250205158A1, “BIODEGRADABLE LIPIDS AND FORMULATIONS FOR DELIVERY OF MRNA” (Massachusetts Institute of Technology, priority 2023, published 2025).

Legend:
[1] = Ethanol solubility of ionizable lipids; format: physicochemical
From the text: AMG lipids for enhanced mRNA delivery and improved tolerability.

[2] = in vivo; cited from earlier work
[3] = tested on: influenza A/Tasmania/503/2020 virus; assay: Hemagglutination inhibition (HAI) assay, neutralizing antibody titers after HA mRNA vaccination; format: in vivo, BALB/cJ mice; conditions: female BALB/cJ mice, dose-response vaccination
Protocol: To test this, a dose-response vaccination experiment ranging from […] was performed in female BALB/cJ mice. Neutralizing antibody titers were evaluated using the hemagglutination inhibition (HAI) assay. HAI titers are strongly correlated with vaccine protection and the assay is an FDA approved method for testing influenza vaccine efficacy^38,39 In agreement with the binding antibody titers, higher neutralizing […] were measured across all three tested doses: SM-102 only gave detectable neutralizing immunity at a 1 μg dose, while AMG1541 gave neutralizing immunity with as little was 10 ng of mRNA (FIG. 13H). Not only was AMG1541 able to generate neutralizing immunity at a very low dose, the binding and neutralizing antibody titers were equivalent in mice vaccinated with AMG1541 at a […] as those with SM-102 at a […] (FIG. 13H).
HAI Assay. HAI assays were performed by IBT bioservices. Viral titers were standardized by defining one HA unit as the amount of inactivated influenza A/Tasmania/503/2020 virus required to completely hemagglutinate an equal volume of 1% turkey red blood cells (TRBCs) (Lampire). Serum was heat inactivated at 56° C. then receptor destroying enzyme (RDE) (DENKA) was added to the serum and incubated at 37° C. for 20 hrs. RDE was then deactivated at 56° C. for 60 mins. Serum samples were then serially diluted in DPBS and 25 μL of diluted serum was added to a 96-well V bottom plate. Subsequently, four HA units of inactivated virus in 25 μL of DPBS were added to the diluted serum and incubated for 30 mins. at RT. 50 μL of a 1% (4×10^7 cells/mL) solution of turkey red blood cells (Lampire) was then added to the serum and virus mixture.

[4] = tested on: mice; conditions: FLuc expression in liver and spleen 6 hours after IM injection
Protocol: Evaluation of the LNPs via intramuscular injection. The in vivo potency of the ionizable lipids was screened through intramuscular injection of LNPs loaded with mRNA encoding firefly luciferase protein. These LNPs were formulated with a molar composition of (35:16:46.5:2.5) using one of the synthesized ionizable lipids, DOPE as a helper lipid, cholesterol, and DMPE-PEG respectively. mRNA-loaded LNPs were intramuscularly administered in mice at a dose of 1 μg, and expression of luciferase protein was monitored at 6 hours via IVIS bioluminescent imaging (FIG. 3). […] Without wishing to be bound by theory, increased levels of protein expression may enhance the response to vaccination.
In Vitro and In Vivo Screening of AMG Lipid Library. Following synthesis, the mRNA delivery efficacy of the AMG lipids was evaluated through both in vitro and in vivo screens. To screen the first generation of AMG lipids (FIGS. 11B and 11C), firefly luciferase (FLuc) mRNA was encapsulated into LNPs using a previously reported formulation containing ionizable lipid, 1,2-dioleoyl-sn-glycero-3-phosphoethanolamine (DOPE), cholesterol, and 1,2-dimyristoyl-rac-glycero-3-methoxypolyethylene glycol-2000 (DMG-PEG).^19 C2C12 myoblast cells were treated with these LNPs and FLuc expression was evaluated at 24 hrs. (FIG. 16). […] Each of these batches was then injected IM into the quadriceps of mice, and expression was characterized via IVIS imaging (Screen 1, FIG. 11E).
AMG lipids for enhanced mRNA delivery and improved tolerability. A rational design approach was used to further vary the ionizable lipid structure to enhance the mRNA delivery and immunogenicity. […] The lipid tail structure was varied to promote efficient LNP self-assembly while simultaneously promoting endosomal membrane disruption.^18 Monounsaturated (G41-G44) or fully saturated (GC12-GC18) lipid tails were developed. […] Without wishing to be bound by any particular theory, tail length may impact membrane fusion and endosomal escape.^10,11
Next, the headgroup was further modified to further improve delivery. Headgroups play a multifunctional role including enhancing LNP-mRNA interactions, promoting membrane-LNP fusion and endosomal escape which all contribute to mRNA delivery.^23 A series of similar aza-crown ethers were used to further investigate structure-activity relationship and enhance mRNA delivery. These headgroups featured between three and eight nitrogens linked by varying length of methylene chains. Each of these headgroups were reacted with tail G41 to synthesize a next generation of AMG lipids, which were then formulated with FLuc mRNA and evaluated for mRNA delivery following IM administration in mice (FIG. 12B).

| Structure (SMILES) | ethanol solubility [1] | time SM-102 remained detectable at the injection site [2] | time SM-102 remained detectable in the liver and spleen [2] | dose giving detectable neutralizing immunity [3] [µg] | fold higher mRNA transfection in the liver and spleen compared to AMG1541 [4] [fold] |
| --- | --- | --- | --- | --- | --- |
| CCCCCCCCCCCCCCCCCC(=O)OCC(O)CN1CCCN(CC(O)COC(=O)CCCCCCCCCCCCCCCCC)CCN(CC(O)COC(=O)CCCCCCCCCCCCCCCCC)CCCN(CC(O)COC(=O)CCCCCCCCCCCCCCCCC)CC1 (mixture of isomers) [AMG10C18] | poor ethanol solubility |  |  |  |  |
| CCCCCCCCCCCOC(=O)CCCCCN(CCO)CCCCCCCC(=O)OC(CCCCCCCC)CCCCCCCC [SM-102, reference compound] |  | at least 48 hours | at least 10 hours | 1 | ~100 |
